Assay results published in patent US7419969B2 (Bristol-Myers Squibb Company, priority 2004, dated 2008).

The compounds below were run against T1, HIV-integrase (Human immunodeficiency virus type 1 group M subtype B, UniProt P04585) (assay: in-vitro activity against HIV-integrase (HIV Integrase Inhibition, SPA bead assay)). Details: Table 1; recombinant integrase, activity class.
T1 construct: Recombinant integrase (0.26 ng) was incubated with the beads
Type: biochemical
Method: To evaluate in-vitro activity against HIV-integrase, 5 pmole of biotin labeled substrate DNA was bound to 100 μg of Streptavidin coated PVT SPA beads (Amersham Pharmacia Biotech). Recombinant integrase (0.26 ng) was incubated with the beads for 90 min at 37° C. Unbound enzyme was removed by washing the complex followed by addition of inhibitors and […] of P33 labeled target DNA. The reaction was stopped by adding EDTA to a final concentration of 10 mM. Samples were counted in TopCountNXT (Packard) and the CPM was used as a measure of integration. The reaction condition was as described in Engelman, A. and Craigie, R. J. Vitrol. 1996, 69, 5908. The sequences of substrate and target DNA were described in Nucleic Acid Research 1994, 22, 1121.

Compound	IC50 [nM]
O=C(NCc1cccc(F)c1-n1cncn1)c1nc2n(c(=O)c1O)CCCC21CCCC1 [Example 12, N-[[3-fluoro-2-(1H-1,2,4-triazol-1-yl)phenyl]methyl]-7′,8′-dihydro-3′-hydroxy-4′-oxo-spiro[cyclopentane-1,9′(6′H)-[4H]pyrido[1,2-α]pyrimidine]-2′-carboxamide]	1 to 10
O=C(NCc1ccc(F)cc1)c1nc2n(c(=O)c1O)CCCC21CCOCC1 [Example 13, N-[(4-fluorophenyl)methyl]-2,3,5,6,7′,8′-hexahydro-3′-hydroxy-4′-oxo-spiro[4H-pyran-4,9′(6′H)-[4H]pyrido[1,2-a]pyrimidine]-2′-carboxamide]	1 to 10
O=C(NCc1ccccc1)c1nc2n(c(=O)c1O)CCOC21CCCC1 [Example 14, N-(phenylmethyl)-6′,7′-dihydro-3′-hydroxy-4′-oxo-spiro[cyclopentane-1,9′(4′H)-pyrimido[2,1-c][1,4]oxazine]-2′-carboxamide]	1 to 10
O=C(NCc1ccc(F)cc1)c1nc2n(c(=O)c1O)CCOC21CCCC1 [Example 15, N-[(4-fluorophenyl)methyl]-6′,7′-dihydro-3′-hydroxy-4′-oxo-spiro[cyclopentane-1,9′(4′H)-pyrimido[2,1-c][1,4]oxazine]-2′-carboxamide]	1 to 10
Cc1cc(CNC(=O)c2nc3n(c(=O)c2O)CCOC32CCCC2)ccc1F [Example 16, N-[(4-fluoro-3-methylphenyl)methyl]-6′,7′-dihydro-3′-hydroxy-4′-oxo-spiro[cyclopentane-1,9′(4′H)-pyrimido[2,1-c][1,4]oxazine]-2′-carboxamide]	1 to 10
O=C(NCc1ccc(F)cc1-n1cncn1)c1nc2n(c(=O)c1O)CCOC21CCCC1 [Example 17, N-[[4-fluoro-2-(1 H-1,2,4-triazol-1-yl)phenyl]methyl]-6′,7′-dihydro-3′-hydroxy-4′-oxo-spiro[cyclopentane-1,9′(4′H)-pyrimido[2,1-c][1,4]oxazine]-2′-carboxamide]	1 to 10
CSc1cc(F)ccc1CNC(=O)c1nc2n(c(=O)c1O)CCOC21CCCC1 [Example 18, N-[[4-fluoro-2-(methylthio)phenyl]methyl]-6′,7′-dihydro-3′-hydroxy-4′-oxo-spiro[cyclopentane-1,9′(4′H)-pyrimido[2,1-c][1,4]oxazine]-2′-carboxamide]	1 to 10
Cc1ccc(CNC(=O)c2nc3n(c(=O)c2O)CCOC32CCCC2)cc1 [Example 19, 6′,7′-dihydro-3′-hydroxy-N-[(4-methylphenyl)methyl]-4′-oxo-spiro[cyclopentane-1,9′(4′H)-pyrimido[2,1-c][1,4]oxazine]-2′-carboxamide]	10 to 100
O=C(NCc1ccc(Cl)cc1)c1nc2n(c(=O)c1O)CCOC21CCCC1 [Example 20, N-[(4-chlorophenyl)methyl]-6′,7′-dihydro-3′-hydroxy-4′-oxo-spiro[cyclopentane-1,9′(4′H)-pyrimido[2,1-c][1,4]oxazine]-2′-carboxamide]	1 to 10
O=C(NCc1ccc(Cl)c(Cl)c1)c1nc2n(c(=O)c1O)CCOC21CCCC1 [Example 21, N-[(3,4-dichlorophenyl)methyl]-6′,7′-dihydro-3′-hydroxy-4′-oxo-spiro[cyclopentane-1,9′(4′H)-pyrimido[2,1-c][1,4]oxazine]-2′-carboxamide]	1 to 10
Cc1ccc(CNC(=O)c2nc3n(c(=O)c2O)CCOC32CCCC2)cc1C [Example 22, N-[(3,4-dimethylphenyl)methyl]-6′,7′-dihydro-3′-hydroxy-4′-oxo-spiro[cyclopentane-1,9′(4′H)-pyrimido[2,1-c][1,4]oxazine]-2′-carboxamide]	10 to 100
COc1ccc(CNC(=O)c2nc3n(c(=O)c2O)CCOC32CCCC2)cc1 [Example 23, 6′,7′-dihydro-3′-hydroxy-N-[(4-methoxyphenyl)methyl]-4′-oxo-spiro[cyclopentane-1,9′(4′H)-pyrimido[2,1-c][1,4]oxazine]-2′-carboxamide]	10 to 100
O=C(NCc1ccccc1F)c1nc2n(c(=O)c1O)CCOC21CCCC1 [Example 24, N-[(2-fluorophenyl)methyl]-6′,7′-dihydro-3′-hydroxy-4′-oxo-spiro[cyclopentane-1,9′(4′H)-pyrimido[2,1-c][1,4]oxazine]-2′-carboxamide]	10 to 100
COc1ccc(CNC(=O)c2nc3n(c(=O)c2O)CCOC32CCCC2)c(OC)c1 [Example 25, N-[(2,4-dimethoxyphenyl)methyl]-6′,7′-dihydro-3′-hydroxy-4′-oxo-spiro[cyclopentane-1,9′(4′H)-pyrimido[2,1-c][1,4]oxazine]-2′-carboxamide]	10 to 100
O=C(NCc1cccc(F)c1)c1nc2n(c(=O)c1O)CCOC21CCCC1 [Example 26, N-[(3-fluorophenyl)methyl]-6′,7′-dihydro-3 ′-hydroxy-4′-oxo-spiro[cyclopentane-1,9′(4′H)-pyrimido[2,1-c][1,4]oxazine]-2′-carboxamide]	10 to 100
Cc1ccc(CNC(=O)c2nc3n(c(=O)c2O)CCOC32CCCC2)cc1F [Example 27, N-[(3-fluoro-4-methylphenyl)methyl]-6′,7′-dihydro-3′-hydroxy-4′-oxo-spiro[cyclopentane-1,9′(4′H)-pyrimido[2,1-c][1,4]oxazine]-2′-carboxamide]	1 to 10
CN(C)S(=O)(=O)c1cc(F)ccc1CNC(=O)c1nc2n(c(=O)c1O)CCOC21CCCC1 [Example 28, N-[[(2-(dimethylamino)sulfonyl]-4-fluorophenyl)methyl]-6′,7′-dihydro-3′-hydroxy-4′-oxo-spiro[cyclopentane-1,9′(4′H)-pyrimido[2,1-c][1,4]oxazine]-2′-carboxamide]	1 to 10
O=C(NCc1cc(F)ccc1-n1cncn1)c1nc2n(c(=O)c1O)CCOC21CCCC1 [Example 29, N-[[5-fluoro-2-(1H-1,2,4-triazol-1-yl)phenyl]methyl]-6′,7′-dihydro-3′-hydroxy-4′-oxo-spiro[cyclopentane-1,9′(4′H)-pyrimido[2,1-c][1,4]oxazine]-2′-carboxamide]	1 to 10
O=C(NCCc1ccc(F)cc1)c1nc2n(c(=O)c1O)CCOC21CCCC1 [Example 30, N-[2-(4-fluorophenyl)ethyl]-6′,7′-dihydro-3′-hydroxy-4′-oxo-spiro[cyclopentane-1,9′(4H)-pyrimido[2,1-c][1,4]oxazine]-2′-carboxamide]	10 to 100
O=C(NCCCc1ccc(F)cc1)c1nc2n(c(=O)c1O)CCOC21CCCC1 [Example 31, N-[3-(4-fluorophenyl)propyl]-6′,7′-dihydro-3′-hydroxy-4′-oxo-spiro[cyclopentane-1,9′(4′H)-pyrimido[2,1-c][1,4]oxazine]-2′-carboxamide]	10 to 100
Cc1ncnn1-c1cc(F)ccc1CNC(=O)c1nc2n(c(=O)c1O)CCOC21CCCC1 [Example 32, N-[[4-fluoro-2-(5-methyl-1H-1,2,4-triazol-1-yl)phenyl]methyl]-6′,7′-dihydro-3′-hydroxy-4′-oxo-spiro[cyclopentane-1,9′(4′H)-pyrimido[2,1-c][1,4]oxazine]-2′-carboxamide]	1 to 10
O=C(NCc1ccccc1-n1cncn1)c1nc2n(c(=O)c1O)CCOC21CCCC1 [Example 33, 6′,7′-dihydro-3′-hydroxy-4′-oxo-N-[[2-(1H-1,2,4-triazol-1-yl)phenyl]methyl]-spiro[cyclopentane-1,9′(4′H)-pyrimido[2,1-c][1,4]oxazine]-2′-carboxamide]	1 to 10
